# Results reported in US20230248741A1, “Compositions and Methods for Lowering Triglycerides in a Subject with Reduced Kidney Function and Diabetes Mellitus” (Amarin Pharmaceuticals Ireland Limited, priority 2018, published 2023).
# Assays:
# [1] = test system: subjects with Age-Associated Memory Impairment; assay: Safety and tolerability (TEAEs), 6-week AAMI study; format: in vivo, human
# Description: All randomized subjects that received at least 1 dose of study medication were included in the Safety Population.
# Safety evaluations were based on the safety population. Safety and tolerability were assessed in terms of AEs, vital signs, 12-lead ECG, clinical laboratory data, medical history, and study drug compliance. Safety and tolerability data were presented by treatment group.
# [2] = test system: patients with eGFR <90 mL/min/1.73 m^2 for ≥3 months and hsCRP ≥2.0 mg/L; assay: ANCHOR post-hoc: lipid parameters; format: in vivo, human; conditions: 4 g/day; 12 weeks; P<0.0001
# Description: CVD-related (e.g., atherogenic) parameters were analyzed in a post-hoc study of 152 patients from the multi-center, placebo-controlled, randomized double-blind, 12-week study described in Example 1. These 152 patients have reduced kidney reduced function (e.g., eGFR<90 mL/min/1.73 m^2 for ≥3 months) and hsCRP≥2.0 mg/L.
# Subjects: 72 patients were randomized to E-EPA and 80 patients were randomized to placebo. In total, atherogenic parameters were analyzed in all 152 patients, 54% of which were male and 99% of which were white. The mean age of the 152 patients was 64 years old.
# The primary objective of this post-hoc study, was to determine if and how 4 g of daily of >96% E-EPA, compared to placebo, affects patients with reduced kidney function, elevated hsCRP (e.g, hsCRP≥2.0 mg/L), and high triglyceride levels. […] CVD-parameters were analyzed for median difference in percent change from baseline to week 12 in subjects receiving 4 g/day of E-EPA and those receiving the placebo.
# Analysis: The median difference in lipid/lipoprotein, apolipoprotein, and inflammatory parameters were determined from baseline to week 12 for 4/g day of E-EPA compared to placebo.
smiles,measurement,setting,value
"CC/C=C\C/C=C\C/C=C\C/C=C\C/C=C\CCCC(=O)OCC [E-EPA, ethyl eicosapentaenoate]",subjects with nausea Possibly Related to the study drug,[1]; 1 g E-EPA cohort,two
same,TEAE Probably Related to the study drug,"[1]; 1 g E-EPA, one subject",nausea
same,subjects with nausea Possibly Related to the study drug,[1]; 2 g E-EPA cohort,one
same,"Serious Adverse Event (worsening epigastric chest pain), relation to study drug","[1]; 2 g E-EPA, one subject",unrelated to the study drug
same,subjects with nausea Possibly Related to the study drug,[1]; 4 g E-EPA cohort,two
same,TEAE Probably Related to the study drug,"[1]; 4 g E-EPA, one subject",diarrhea
same,SAE reported,[1]; E-EPA 2 g treatment group,One
same,subjects discontinued due to TEAEs,[1]; E-EPA 2 g treatment group,2 subjects
same,TEAEs reported,"[1]; E-EPA treatment groups (1, 2, 4 g), placebo groups 34 events",105 events
same,TEAEs Definitely Related to the study drug,[1]; all groups,No TEAEs were Definitely Related to the study drug
same,deaths during the study,[1]; all groups,no deaths
same,reduction of triglycerides compared to placebo,[2],about 16.9%
